Laboratory results: US11931424B2, “Combination MCL-1 inhibitors with anti-body drug conjugates” (Gilead Sciences, Inc., priority 2021, dated 2024)

Tested on: panel of breast cancer cell lines
Experiment: Compound A with targeted agents and chemotherapies, 72-hour in vitro proliferation assays
Format: cell-based
Details: 72-hour proliferation
[1] = MCF7 cells, Compound A × partner agent
[2] = MDA-MB-175-VII cells, Compound A × partner agent
[3] = MDA-MB-231 cells, Compound A × partner agent
[4] = MDA-MB-361 cells, Compound A × partner agent
[5] = MDA-MB-436 cells, Compound A × partner agent
[6] = MDA-MB-453 cells, Compound A × partner agent
[7] = MDA-MB-468 cells, Compound A × partner agent
[8] = SK-BR-3 cells, Compound A × partner agent
[9] = SUM159PT cells, combination of compound A with the named agent
[10] = T47D cells, combination of compound A with the named agent
[11] = ZR-75-1 cells, combination of compound A with the named agent
[12] = ZR-75-30 cells, combination of compound A with the named agent

With `N.N.O=C([O-])C1(C(=O)[O-])CCC1.[Pt+2]` [Carboplatin] the HSA volume (HCC2218, compound A × partner) was 0.49, the “Loewe Volume” value (HCC2218, compound A × partner) was −1.33 and the “Synergy Score” value (HCC2218, compound A × partner) was 5.27. For the same compound, the “Best CI” value (HDQ-P1, compound A × partner) was 0.92, the “Best CI Level” value (HDQ-P1, compound A × partner) was 35 and the “Bliss Volume” value (HDQ-P1, compound A × partner) was −3.17. For the same compound, the HSA volume (HDQ-P1, compound A × partner) was −3.06, the “Loewe Volume” value (HDQ-P1, compound A × partner) was −3.13 and the “Synergy Score” value (HDQ-P1, compound A × partner) was 0.54. The “Best CI” value (HMC-1-8, compound A × partner) was 0.72, the “Best CI Level” value (HMC-1-8, compound A × partner) was 155 and the “Bliss Volume” value (HMC-1-8, compound A × partner) was 9.25. The HSA volume (HMC-1-8, compound A × partner) was 4.09, the “Loewe Volume” value (HMC-1-8, compound A × partner) was 3.94 and the “Synergy Score” value (HMC-1-8, compound A × partner) was 9.60. The “Best CI” value (JIMT-1, compound A × partner) was 0.96, the “Best CI Level” value (JIMT-1, compound A × partner) was 25 and the “Bliss Volume” value (JIMT-1, compound A × partner) was 3.78. For the same compound, the HSA volume (JIMT-1, compound A × partner) was −0.17, the “Loewe Volume” value (JIMT-1, compound A × partner) was 1.92 and the “Synergy Score” value (JIMT-1, compound A × partner) was 0.69. The “Best CI” value (KPL-1, compound A × partner) was 0.89, the “Best CI Level” value (KPL-1, compound A × partner) was 105 and the “Bliss Volume” value (KPL-1, compound A × partner) was 0.04. For the same compound, the HSA volume (KPL-1, compound A × partner) was 1.33, the “Loewe Volume” value (KPL-1, compound A × partner) was 0.65 and the “Synergy Score” value (KPL-1, compound A × partner) was 2.66. The “Best CI” value [1] was 0.40, the “Best CI Level” value [1] was 75 and the “Bliss Volume” value [1] was 8.40. The HSA volume [1] was 5.66, the “Loewe Volume” value [1] was 4.40 and the “Synergy Score” value [1] was 6.10. For the same compound, the “Best CI” value [2] was 0.60, the “Best CI Level” value [2] was 80 and the “Bliss Volume” value [2] was 15.45. The HSA volume [2] was 7.97, the “Loewe Volume” value [2] was 12.14 and the “Synergy Score” value [2] was 9.73. The “Best CI” value [3] was 0.91, the “Best CI Level” value [3] was 50 and the “Bliss Volume” value [3] was 3.11. For the same compound, the HSA volume [3] was 2.11, the “Loewe Volume” value [3] was 3.30 and the “Synergy Score” value [3] was 1.89. The “Best CI” value [4] was 0.82, the “Best CI Level” value [4] was 135 and the “Bliss Volume” value [4] was 2.52. For the same compound, the HSA volume [4] was 1.01, the “Loewe Volume” value [4] was 1.40 and the “Synergy Score” value [4] was 7.41. For the same compound, the “Best CI” value [5] was 1.72, the “Best CI Level” value [5] was 135 and the “Bliss Volume” value [5] was 1.31. For the same compound, the HSA volume [5] was 1.06, the “Loewe Volume” value [5] was 1.16 and the “Synergy Score” value [5] was 2.53. For the same compound, the “Best CI” value [6] was 1.12, the “Best CI Level” value [6] was 150 and the “Bliss Volume” value [6] was 9.75. The HSA volume [6] was 5.44, the “Loewe Volume” value [6] was 6.37 and the “Synergy Score” value [6] was 10.04. The “Best CI” value [7] was 0.56, the “Best CI Level” value [7] was 135 and the “Bliss Volume” value [7] was 19.05. For the same compound, the HSA volume [7] was 4.48, the “Loewe Volume” value [7] was 3.36 and the “Synergy Score” value [7] was 7.68. The “Best CI” value [8] was 0.35, the “Best CI Level” value [8] was 160 and the “Bliss Volume” value [8] was 11.97. For the same compound, the HSA volume [8] was 1.74, the “Loewe Volume” value [8] was 1.40 and the “Synergy Score” value [8] was 6.87. For the same compound, the “Best CI” value [9] was 0.52, the “Best CI Level” value [9] was 20 and the “Bliss Volume” value [9] was 1.33. For the same compound, the HSA volume [9] was −1.99, the “Loewe Volume” value [9] was −0.01 and the “Synergy Score” value [9] was 0.81. For the same compound, the “Best CI” value [10] was 1.01, the “Best CI Level” value [10] was 30 and the “Bliss Volume” value [10] was 0.78. For the same compound, the HSA volume [10] was −1.67, the “Loewe Volume” value [10] was 0.98 and the “Synergy Score” value [10] was 1.42. For the same compound, the “Best CI” value [11] was 0.88, the “Best CI Level” value [11] was 100 and the “Bliss Volume” value [11] was 4.99. The HSA volume [11] was 6.14, the “Loewe Volume” value [11] was 6.57 and the “Synergy Score” value [11] was 7.91. For the same compound, the “Best CI” value [12] was 0.30, the “Best CI Level” value [12] was 100 and the “Bliss Volume” value [12] was 8.34. The HSA volume [12] was 6.81, the “Loewe Volume” value [12] was 5.78 and the “Synergy Score” value [12] was 12.96.
